From article PMC8899577, “Targeting the anti-apoptotic Bcl-2 family proteins: machine learning virtual screening and biological evaluation of new small molecules” (Theranostics, 2022)

Legend:
H1299 cells [1] = assay: Tumor sphere formation assay, H1299; format: cell-based, Human; conditions: 20 µM for 72 h, respect to controls
Description: For tumor sphere assay, cells were recovered after treatment, counted and seeded in 24-well ultralow attachment surface plates at a density of 5 × 10^2 cells/well and cultured as previously described. After 10 days, spheres were photographed and counted. The percentage of spheres normalized to the number of seeded cells was calculated.
Figure 4 Analysis of the effect of IS20 and IS21 on cell viability, clonogenic ability and tumor sphere formation in cancer cells. (A) Analysis of cell viability by MTT assay in M14, H1299, HCT116 and MDA-MB-231 cell lines treated with IS20 or IS21 (20 μM for 72 h). The results are reported as “viability of treated cells/viability of control cells (Ctrl)” × 100. (B) Representative images and quantification of clonogenic ability evaluated in M14 and H1299 cells treated with IS20 or IS21 (20 μM for 72 h). Results are reported as percentage of clonogenicity of treated versus control cells. (C) Quantification of tumor sphere formation of M14 and H1299 cells treated with IS20 or IS21 (20 μM for 72 h). Results are reported as percentage of tumor sphere formation of treated versus control. (A-C) Data are reported as mean ± SD of three independent experiments. p-values were calculated between control (Ctrl) and treated cells, ** p < 0.001 and *** p < 0.0001.

H1299 cells [2] = assay: Western blot of PARP1 cleavage, H1299; format: cell-based, Human; conditions: 72 h
Description: (§1) Western blot analyses of total protein extracts were performed as previously described. Immunodetection was performed using antibodies directed to poly (ADP-ribose) polymerase (PARP; BD Biosciences San Diego, CA, USA), LC3B (Cell Signaling Technology, Danvers, MA), HSP72/73 (Calbiochem, EMD Biosciences, La Jolla, CA), Bcl-2 (SC-509, Santa Cruz Biotechnology Inc, Dallas, TX, USA), Bcl-xL (SC-271121, Santa Cruz Biotechnology Inc), Mcl-1 (SC-12756, Santa Cruz Biotechnology Inc) α-tubulin (Santa Cruz Biotechnology Inc) actin (Sigma-Aldrich, St. Louis, Missouri, USA). Anti-rabbit or anti-mouse immunoglobulin G-horseradish peroxidase-conjugated antibodies (Amersham Biosciences, Freiburg, Germany) were used as secondary antibody. Images were acquired by Image Lab Software (Bio-Rad, Hercules, CA, USA), using a ChemiDoc System instrument (Bio-Rad). […]
(§2) Figure 5 Analysis of apoptosis induction by IS20 and IS21 in leukemia, melanoma and NSCLC cells. […] (G) Flow cytometric quantification of cells in the subG1 peak of cell cycle distribution by propidium iodide staining in HL60 cell line treated with IS20 or IS21 (20 μM for 24 h) and in M14, H1299 and MDA-MB-231 cell lines treated with IS20 or IS21 (20 μM for 72 h). Data are reported as mean ± SD of three independent experiments. p-values were calculated between control (Ctrl) and treated cells, * p < 0.05. […]

H1299 cells [3] = assay: Clonogenic assay, H1299; format: cell-based, Human; conditions: 20 µM for 72 h, respect to controls
Description: (§3) The effect of compounds on cell viability was performed by measuring 3-[4,5-dimethylthiazol-2-yl]-2,5-diphenyltetrazolium bromide inner salt (MTT, Sigma-Aldrich) dye absorbance (solid tumor cells) or by quantization of ATP present in metabolically active cells using CellTiter-Glo® Luminescent (Promega, Fitchburg, Wisconsin, USA) (hematologic cells) following manifacturer's protocol. To evaluate the cell colony-forming ability, cell suspension from different samples was seeded into 60-mm Petri dishes. After 10 days, colonies were stained with 2% methylene blue in 95% ethanol and counted (1 colony > 50 cells). The surviving fractions were calculated as the ratio of absolute survival of the treated sample/survival of DMSO-treated control sample.
(§4) Figure 4 Analysis of the effect of IS20 and IS21 on cell viability, clonogenic ability and tumor sphere formation in cancer cells. […] (B) Representative images and quantification of clonogenic ability evaluated in M14 and H1299 cells treated with IS20 or IS21 (20 μM for 72 h). […] (C) Quantification of tumor sphere formation of M14 and H1299 cells treated with IS20 or IS21 (20 μM for 72 h). […] (A-C) Data are reported as mean ± SD of three independent experiments. p-values were calculated between control (Ctrl) and treated cells, ** p < 0.001 and *** p < 0.0001.

HL60 cells [4] = assay: Cell viability by CellTiterGlo, HL60; format: cell-based; conditions: Homo sapiens, HL-60; 24 h, 5 to 50 µM
Description: as §3
Figure 1 Cytotoxic screening of putative inhibitors of Bcl-2 anti-apoptotic proteins. (A) Flow cytometric quantification of propidium iodide exclusion assay in HL60 cells treated with the 49 putative Bcl-2 family inhibitors (50 μM, 72 h). (B) Analysis of cell viability by CellTiterGlo assay in HL60 cells treated for 24 h with concentrations ranging from 5 to 50 μM of the indicated compounds. (C-D) Analysis of cell viability by MTT assay in (C) M14 and (D) Sbcl2 melanoma cell lines treated for 72 h with concentrations ranging from 5 to 50 μM of the indicated compounds. […]

H1299 cells [5] = assay: Flow cytometry subG1 peak (PI staining), H1299; format: cell-based, Human; conditions: 20 µM for 72 h
Description: Flow cytometric analysis (BD Accuri™ C6, BD Biosciences) was performed to evaluate cell cycle distribution by propidium iodide (PI) staining, and cell viability by using the PI dye exclusion assay as previously reported.
Figure 5 Analysis of apoptosis induction by IS20 and IS21 in leukemia, melanoma and NSCLC cells. […] (A-F) Reported images are representative of two independent experiments with similar results. HSP72/73 or α-Tubulin are shown as loading and transferring control. (G) Flow cytometric quantification of cells in the subG1 peak of cell cycle distribution by propidium iodide staining in HL60 cell line treated with IS20 or IS21 (20 μM for 24 h) and in M14, H1299 and MDA-MB-231 cell lines treated with IS20 or IS21 (20 μM for 72 h). Data are reported as mean ± SD of three independent experiments. p-values were calculated between control (Ctrl) and treated cells, * p < 0.05. (H) Flow cytometric quantification of cells in the subG1 peak by propidium iodide staining in M14 and H1299 cell lines treated with IS20 or IS21 (20 μM, 72 h) in presence or absence of the pan caspase inhibitor z-VAD (50 μM). p-values were calculated between treated control (Ctrl) cells, # p < 0.01, ## p < 0.001 or between cells treated with IS20 or IS21 alone or in combination with z-VAD, * p < 0.05, ** p < 0.005. (G-H) Data are reported as mean of two (H) or three (G) experiments ± SD.

[6] = system: MDA-MB-231 breast carcinoma cells; assay: Cell viability by MTT, MDA-MB-231; format: cell-based, Human; conditions: 20 µM for 72 h, vs control
Description: as §3, §4

HCT116 cells = assay: Western blot of PARP1 cleavage, HCT116; format: cell-based, Human; conditions: 72 h
Description: as §1, §2

H1299 NSCLC cells = assay: Cell viability by MTT, H1299; format: cell-based, Human; conditions: 20 µM for 72 h, vs control
Description: as §3, §4

HL60 cells [7] = assay: Western blot of PARP1 cleavage, HL60; format: cell-based, Human; conditions: 20 µM for 24 h
Description: as §1, §2

In the case of CCCCOc1ccc(C2/C(=C(\O)c3ccc4c(c3)CC(C)O4)C(=O)C(=O)N2c2nnc(SCc3ccc(Cl)cc3)s2)cc1OCC (stereo not drawn) [IS20], the “decrease of sphere formation capacity, H1299” value (H1299 cells [1]) is reported as “about 60%”, the “PARP1 cleavage, H1299” value (H1299 cells [2]) is reported as “cleavage of PARP1” and the “decrease of cell colony formation, H1299” value (H1299 cells [3]) is reported as 80-90%. For the same compound, the IC50 (HL60 cells [4]) was 10.9 to 34 µM, the “subG1 peak of cell cycle distribution, H1299” value (H1299 cells [5]) was “presence of subG1 peak” and the “cell viability MDA-MB-231” value [6] was “not significantly perturbed”. The “PARP1 cleavage, HCT116” value (HCT116 cells) was “not evident”, the “cell viability H1299” value (H1299 NSCLC cells) was “significant inhibition” and the “PARP1 cleavage, HL60” value (HL60 cells [7]) was “cleavage of PARP1”.

CCCCCOc1ccc(C2/C(=C(\O)c3ccc4c(c3)CC(C)O4)C(=O)C(=O)N2c2nnc(SCc3ccc(Cl)cc3)s2)cc1OCC (stereo not drawn) [IS21] was tested, and the “decrease of sphere formation capacity, H1299” value (H1299 cells [1]) was “about 60%”, the “PARP1 cleavage, H1299” value (H1299 cells [2]) was “cleavage of PARP1” and the “decrease of cell colony formation, H1299” value (H1299 cells [3]) was 80-90%. The IC50 (HL60 cells [4]) was 10.9 to 34 µM, the “subG1 peak of cell cycle distribution, H1299” value (H1299 cells [5]) was “presence of subG1 peak” and the “cell viability MDA-MB-231” value [6] was “not significantly perturbed”. For the same compound, the “PARP1 cleavage, HCT116” value (HCT116 cells) was “not evident”, the “cell viability H1299” value (H1299 NSCLC cells) was “significant inhibition” and the “PARP1 cleavage, HL60” value (HL60 cells [7]) was “cleavage of PARP1”.
